Measured values reported in patent US20210386367A1, “DEVICES AND SYSTEMS FOR GASTROINTESTINAL MICROBIOME DETECTION AND MANIPULATION” (Progenity, Inc., priority 2018, published 2021).
≈ marks a conversion by molar mass, not a printed value. Where “and” joins values, the source holds several entries; their conditions need not be identical. Equal values may be shown once. Read-outs that look alike come from different tables or passages of the source.

Tests used:
[1] = tested on: B. ovatus; test: Spontaneous mutation frequency and mutation prevention concentration (MPC); type: cell-based; conditions: B. ovatus MMX 3503
From the text: As used herein, “spontaneous mutation frequency” refers to the rate at which mutations arise in a bacterium that can lead to resistance to develop to an antimicrobial agent. “Mutation prevention concentration” or “MPC” refers to the lowest concentration of antimicrobial agent above which the selective proliferation of resistant mutants is expected to occur only rarely.

[2] = tested on: Bacteroides fragilis clinical isolates; test: MIC distribution against clinical isolates; type: cell-based
How it was run: (§1)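 MIC is the lowest agent concentration preventing growth, determined by broth or agar dilution with serial compound dilutions and incubation under appropriate conditions (e.g., overnight at 37° C.). MIC90 is the concentration inhibiting ≥90% of isolates in the test population.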

[3] = tested on: Streptococcus agalactiae clinical isolates; test: MIC distribution against clinical isolates; type: cell-based
How it was run: as §1

[4] = tested on: Prevotella spp. clinical isolates; test: MIC distribution against clinical isolates; type: cell-based
[5] = tested on: Bacteroides non fragilis clinical isolates; test: MIC distribution against clinical isolates; type: cell-based; conditions: 29 Bacteroides non-fragilis isolates
[6] = tested on: B. fragilis ATCC 25285; test: Time-kill assay; type: cell-based, Bacteroides fragilis; conditions: 2×, 4×, 8× MIC; 2, 6, 24, 48 hr
[7] = tested on: B. fragilis ATCC 25285; conditions: B. fragilis MMX 123 ATCC 25285; cited from earlier work
[8] = tested on: Bacteroides spp. spontaneous mutants; conditions: B. fragilis ATCC 25285; CLSI QC range shown in parentheses; cited from earlier work
[9] = tested on: E. coli (ATCC 25922, ATCC 35218, MMX 1312); conditions: cited from earlier work
[10] = tested on: Bacteroides spp.; test: Spontaneous mutation frequency assay; type: cell-based
Experimental: Initial values of the MIC were determined by agar dilution in accordance with guidelines from the Clinical and Laboratory Standards Institute (CLSI; (1) “Methods for Dilution Antimicrobial Susceptibility Tests for Bacteria That Grow Aerobically; Approved Standard; 11th ed.,” CLSI standard M07, 2018; (2) “Methods for Antimicrobial Susceptibility Testing of Anaerobic Bacteria; Approved Standard—Eighth Edition,” CLSI document M11-A8, 2012.).
The agar plates were prepared by mixing a ratio of 1.0 mL of concentrated drug to 49.0 mL of the appropriate molten (47° C.) agar; the drug-supplemented agar was mixed, poured into 15-by-150 mm petri dishes and allowed to solidify and dry at room temperature prior to inoculation. […] Each plate was allowed to cool at room temperature for at least 1 hr.
The isolates were streaked onto the appropriate agar medium and incubated for 20 hr (aerobes) or 48 hr (Bacteroides under anaerobic conditions). Using a sterile swab, several well-isolated colonies were removed and resuspended in sterile saline at a heavy cell density. Each plate was inoculated with 0.5 mL of the cell suspension (each test concentration was inoculated in duplicate). The target inoculum for each spontaneous mutation plate was 10^9-10 CFU. In addition, a portion of the inoculum from each isolate was enumerated by making dilutions, spreading on agar and counting colonies.
Once the inoculum was absorbed into the agar, the plates were incubated at 35° C. Aerobes were examined at 24 and 48 hr, and resulting colonies were counted. Bacteroides were incubated anaerobically for 48-72 hr in the anaerobe chamber and colonies were counted.
Colony counts from plates used to enumerate the initial inoculum density and from the resulting spontaneous mutation frequency test plates were determined. The inoculum size was calculated as CFU inoculated per plate. The spontaneous mutation frequency was calculated using the counts from duplicate spontaneous mutation assay test plates as follows:
If there were no colonies on the antibiotic selection plates, the spontaneous mutation frequency was reported as less than the frequency observed with one colony to indicate that the spontaneous mutation frequency was less than the limit of detection (one CFU). […] The mutation prevention concentration (MPC) was reported as the lowest concentration for which no mutants were selected.

[11] = tested on: Streptococcus spp. (S. pneumoniae ATCC 49619, S. pyogenes ATCC 49399, S. agalactiae ATCC 13813); conditions: cited from earlier work
[12] = tested on: Enterobacteriaceae; conditions: cited from earlier work
[13] = rifaximin selection 4X MIC, 2 μg/mL
[14] = rifaximin selection 8X MIC, 4 μg/mL
[15] = MIC 1 μg/mL, 30 B. fragilis isolates
[16] = MIC >32 μg/mL, 30 B. fragilis isolates
[17] = MIC 32 μg/mL, 30 Prevotella spp. isolates
[18] = MIC 0.06 μg/mL, 20 S. agalactiae isolates
[19] = MIC 0.5 μg/mL, 30 B. fragilis isolates
[20] = MIC 2 μg/mL, 30 B. fragilis isolates
[21] = MIC […], 30 B. fragilis isolates
[22] = MIC 0.5 μg/mL, 30 Prevotella spp. isolates
[23] = MIC 1 μg/mL, 30 Prevotella spp. isolates
[24] = MIC 4 μg/mL, 30 Prevotella spp. isolates
[25] = MIC 8 μg/mL, 30 Prevotella spp. isolates
[26] = MIC >32 μg/mL, 30 Prevotella spp. isolates
[27] = MIC 1 μg/mL, 20 S. agalactiae isolates
[28] = MIC 8 μg/mL, 30 B. fragilis isolates
[29] = MIC 16 μg/mL, 30 B. fragilis isolates
[30] = MIC 32 μg/mL, 30 B. fragilis isolates
[31] = MIC 64 μg/mL, 30 B. fragilis isolates
[32] = MIC 0.03 μg/mL, 20 S. agalactiae isolates
[33] = MIC […], 20 S. agalactiae isolates
[34] = MIC 16 μg/mL, 30 Prevotella spp. isolates
[35] = MIC 64 μg/mL, 30 Prevotella spp. isolates

CO[C@H]1/C=C/O[C@@]2(C)Oc3c(C)c(O)c4c(O)c(c5c(nc6cc(C)ccn65)c4c3C2=O)NC(=O)/C(C)=C\C=C\[C@H](C)[C@H](O)[C@@H](C)[C@@H](O)[C@@H](C)[C@H](OC(C)=O)[C@@H]1C [rifaximin]
MFC [1]: >4 µg/mL
Average Count [1, 13]: 34 CFU
Count 1 [1, 13]: 31 CFU
Count 2 [1, 13]: 37 CFU
Spontaneous Mutation Frequency [1, 13]: 3.58 × 10^−9
Average Count [1, 14]: 27 CFU
Count 1 [1, 14]: 28 CFU
Count 2 [1, 14]: 25 CFU
Spontaneous Mutation Frequency [1, 14]: 2.84 × 10^−9
Number of test isolates at MIC [2, 15]: 1
Cumulative percentage of isolates inhibited at MIC [2, 16]: 100.0%
Number of test isolates at MIC [2, 16]: 1
Cumulative percentage of isolates inhibited at MIC ([3]; listed as RFX): 75.0% and 100.0%
Cumulative percentage of isolates inhibited at MIC [4, 17]: 100.0%
Number of test isolates at MIC [4, 17]: 1
Number of test isolates at MIC ([4]; MIC […], 30 Prevotella spp. isolates): 12
Number of test isolates at MIC ([5]; MIC […]): 12
Number of test isolates at MIC ([5]; MIC ≤0.03 μg/mL): 3
time-kill kinetics outcome (bactericidal = ≥3 log reduction in CFU per mL) [6]: did not show evidence of killing

COc1c(N2C[C@@H]3CCCN[C@@H]3C2)c(F)cc2c(=O)c(C(=O)O)cn(C3CC3)c12 [moxifloxacin]
Cumulative percentage of isolates inhibited at MIC [3, 18]: 15.0%
Number of test isolates at MIC [3, 18]: 3

piperacillin/tazobactam [piperacillin-tazobactam]
CLSI QC range (MIC) [7]: (4-16) μg/mL

Cc1ncc([N+](=O)[O-])n1CCO [MTZ]
Cumulative percentage of isolates inhibited at MIC [2, 19]: 30.0%
Number of test isolates at MIC [2, 19]: 7
Cumulative percentage of isolates inhibited at MIC [2, 15]: 76.7%
Number of test isolates at MIC [2, 15]: 14
Cumulative percentage of isolates inhibited at MIC [2, 20]: 100.0%
Number of test isolates at MIC [2, 20]: 7
Cumulative percentage of isolates inhibited at MIC [2, 21]: 6.7%
Number of test isolates at MIC [2, 21]: 2
MIC, CLSI QC range [8]: (0.25-2) μg/mL
Cumulative percentage of isolates inhibited at MIC [4, 22]: 46.7%
Number of test isolates at MIC [4, 22]: 8
Cumulative percentage of isolates inhibited at MIC [4, 23]: 76.7%
Number of test isolates at MIC [4, 23]: 9
Cumulative percentage of isolates inhibited at MIC [4, 24]: 83.3%
Number of test isolates at MIC [4, 24]: 2
Cumulative percentage of isolates inhibited at MIC [4, 25]: 96.7%
Number of test isolates at MIC [4, 25]: 4
Cumulative percentage of isolates inhibited at MIC [4, 26]: 100.0%
Number of test isolates at MIC [4, 26]: 1
Cumulative percentage of isolates inhibited at MIC ([5]; MIC 0.5 μg/mL): 55.2%
Number of test isolates at MIC ([5]; MIC 0.5 μg/mL): 12
Cumulative percentage of isolates inhibited at MIC ([5]; MIC 1 μg/mL): 75.9%
Number of test isolates at MIC ([5]; MIC 1 μg/mL): 6
Cumulative percentage of isolates inhibited at MIC ([5]; MIC 2 μg/mL): 96.6%
Number of test isolates at MIC ([5]; MIC 2 μg/mL): 6
Cumulative percentage of isolates inhibited at MIC ([5]; MIC >16 μg/mL): 100.0%
Number of test isolates at MIC ([5]; MIC >16 μg/mL): 1

CN[C@H](CC(C)C)C(=O)N[C@H]1C(=O)N[C@@H](CC(N)=O)C(=O)N[C@H]2C(=O)N[C@H]3C(=O)N[C@H](C(=O)N[C@H](C(=O)O)c4cc(O)cc(O)c4-c4cc3ccc4O)[C@H](O)c3ccc(c(Cl)c3)Oc3cc2cc(c3O[C@@H]2O[C@H](CO)[C@@H](O)[C@H](O)[C@H]2O[C@H]2C[C@](C)(N)[C@H](O)[C@H](C)O2)Oc2ccc(cc2Cl)[C@H]1O [vancomycin, Vancomycin]
Cumulative percentage of isolates inhibited at MIC [3, 27]: 100.0%
Number of test isolates at MIC [3, 27]: 1

CO/N=C(\C(=O)N[C@@H]1C(=O)N2C(C(=O)O)=C(CSc3nc(=O)c(=O)[nH]n3C)CS[C@H]12)c1csc(N)n1 [ceftriaxone]
Cumulative percentage of isolates inhibited at MIC [2, 28]: 10.0%
Number of test isolates at MIC [2, 28]: 3
Cumulative percentage of isolates inhibited at MIC [2, 29]: 40.0%
Number of test isolates at MIC [2, 29]: 9
Cumulative percentage of isolates inhibited at MIC [2, 30]: 66.7%
Number of test isolates at MIC [2, 30]: 8
Cumulative percentage of isolates inhibited at MIC [2, 31]: 73.3%
Number of test isolates at MIC [2, 31]: 2
Cumulative percentage of isolates inhibited at MIC ([2]; listed as CTR): 76.7% and 100.0%
Cumulative percentage of isolates inhibited at MIC [3, 32]: 25.0%
Number of test isolates at MIC [3, 32]: 5
Cumulative percentage of isolates inhibited at MIC [3, 18]: 90.0%
Number of test isolates at MIC [3, 18]: 1.3
Cumulative percentage of isolates inhibited at MIC [3, 33]: 100.0%
Number of test isolates at MIC [3, 33]: 2
CLSI QC range (agar MIC) [9]: 0.03 to 0.12 µg/mL
MPC (mutation prevention concentration) ([10]; B. vulgatus ATCC 8482): 32 µg/mL
Spontaneous Mutation Frequency ([10]; B. vulgatus ATCC 8482, 4× the MIC): > 8.69×10^−8
Spontaneous Mutation Frequency ([10]; B. vulgatus ATCC 8482, 8× the MIC): ≤ 1.74×10^−10
Cumulative percentage of isolates inhibited at MIC [4]: 100.0%
Number of test isolates at MIC [4]: 3
Cumulative percentage of isolates inhibited at MIC [4, 22]: 20.0%
Number of test isolates at MIC [4, 22]: 1
Cumulative percentage of isolates inhibited at MIC [4, 24]: 33.3%
Number of test isolates at MIC [4, 24]: 4
Cumulative percentage of isolates inhibited at MIC [4, 25]: 36.7%
Number of test isolates at MIC [4, 25]: 1
Cumulative percentage of isolates inhibited at MIC [4, 34]: 46.7%
Number of test isolates at MIC [4, 34]: 3
Cumulative percentage of isolates inhibited at MIC [4, 17]: 66.7%
Number of test isolates at MIC [4, 17]: 6
Cumulative percentage of isolates inhibited at MIC [4, 35]: 90.0%
Number of test isolates at MIC [4, 35]: 7
Cumulative percentage of isolates inhibited at MIC ([5]; MIC 1 μg/mL): 3.4%
Number of test isolates at MIC ([5]; MIC 1 μg/mL): 1
Cumulative percentage of isolates inhibited at MIC ([5]; MIC 2 μg/mL): 6.9%
Number of test isolates at MIC ([5]; MIC 2 μg/mL): 1
Cumulative percentage of isolates inhibited at MIC ([5]; MIC 4 μg/mL): 13.8%
Number of test isolates at MIC ([5]; MIC 4 μg/mL): 2
Cumulative percentage of isolates inhibited at MIC ([5]; MIC 16 μg/mL): 24.1%
Number of test isolates at MIC ([5]; MIC 16 μg/mL): 3
Cumulative percentage of isolates inhibited at MIC ([5]; MIC 32 μg/mL): 27.6%
Number of test isolates at MIC ([5]; MIC 32 μg/mL): 1
Cumulative percentage of isolates inhibited at MIC ([5]; MIC 64 μg/mL): 34.5%
Number of test isolates at MIC ([5]; MIC 64 μg/mL): 2
CLSI QC range (agar MIC) [11]: 0.03 to 0.12 µg/mL
% S [12]: 87.5%
MIC50 [12]: ≤1 µg/mL
MIC90 [12]: 8 µg/mL (≈ 14.4 µM)
